Among the data in patent US20250154138A1, “Small Molecule IL-17A Modulators” (BeiGene, Ltd., priority 2022, published 2025) are IC50 values, retold here.

For assay [1], the target named is human IL-17A / human IL-17RA (Homo sapiens (Human), UniProt Q16552). As to the kind of experiment: Human IL-17A biochemical assay (HTRF, blocking of IL-17A binding to IL-17RA). The note with it: 0.4 nM IL-17A, 0.3 nM IL-17RA, max compound concentration 10 uM. The method in brief: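 Inhibition of IL-17A binding to IL-17RA is measured by HTRF using 0.4 nM IL-17A, 0.3 nM IL-17RA and a 3 h compound pre-incubation at room temperature, pH 7.5. IC50 values come from four-parameter logistic fitting.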
On the technique in general: Time-resolved FRET reads energy transfer from a long-lived donor to a nearby acceptor.

Assay [2] deals with IL-17-induced GROα secretion from HT-29 cells. Nature of the assay: GROα release assay in human colorectal adenocarcinoma epithelial cell (HT-29, ELISA). Format: cell-based. The note with it: Homo sapiens, HT-29, 48 h, 10 ng/mL IL-17A, highest concentration 10 μM, read-out: Cellular assay HT29 cell/CXCL1 IC50. The procedure, abridged:
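HT-29 cells were exposed 48 h at 37°C to IL-17A (final 10 ng/mL) preincubated 15 min with compound (4-fold dilutions, top 10 μM). Secreted GROα was quantified by ELISA against a standard curve, and IC50 obtained by four-parameter fitting.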
For orientation: In an ELISA, binding on a coated surface is turned into a signal by an enzyme label.

human IL-17A / human IL-17RA, sequence (Q16552 24-155): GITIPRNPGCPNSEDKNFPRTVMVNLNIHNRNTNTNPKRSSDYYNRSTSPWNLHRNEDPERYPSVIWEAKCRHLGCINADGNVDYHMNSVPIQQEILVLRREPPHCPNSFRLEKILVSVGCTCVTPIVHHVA

As to `Cc1nonc1C(=O)N[C@H](C(=O)Nc1ccc2c(c1)CC(C(=O)Nc1ccccc1C(C)C)(N1C[C@@H](C(C)C)NC1=O)C2)C(C1CC1)C1CC1` (stereo partly drawn) [Example 288, N-((2S)-1,1-dicyclopropyl-3-((2-((R)-4-isopropyl-2-oxoimidazolidin-1-yl)-2-((2-isopropylphenyl)carbamoyl)-2,3-dihydro-1H-inden-5-yl)amino)-3-oxopropan-2-yl)-4-methyl-1,2,5-oxadiazole-3-carboxamide], the IC50 in assay [1] turned out to be 110 nM; in assay [2], 408 nM.
For `CCc1ccccc1NC(=O)C1(N2C[C@@H](C(C)C)NC2=O)Cc2ccc(NC(=O)[C@@H](NC(=O)c3nonc3C)C(C3CC3)C3CC3)cc2C1` (stereo partly drawn) [Example 289, N-((2S)-1,1-dicyclopropyl-3-((2-((2-ethylphenyl)carbamoyl)-2-((R)-4-isopropyl-2-oxoimidazolidin-1-yl)-2,3-dihydro-1H-inden-5-yl)amino)-3-oxopropan-2-yl)-4-methyl-1,2,5-oxadiazole-3-carboxamide], in that order: 24.5 nM and 81.4 nM.
Consider `Cn1nccc1C(=O)N[C@H](C(=O)Nc1ccc2c(c1)OCC(CN1CC(C(F)(F)F)NC1=O)C2)C1CCCCC1` (stereo partly drawn) [Example 291, N-((1S)-1-cyclohexyl-2-oxo-2-((3-(((S)-2-oxo-4-(trifluoromethyl)imidazolidin-1-yl)methyl)chroman-7-yl)amino)ethyl)-1-methyl-1H-pyrazole-5-carboxamide], for which the IC50 in assay [1] amounted to 1550 nM; in assay [2] it was 1060 nM.
